# Data as given in PubChem BioAssay (NCI).
#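 Values below derive from 48-hour exposures of cells grown in 96-well plates, with endpoints linearly interpolated between the two concentrations bracketing the appropriate inhibition level. GI50 = concentration required for 50% inhibition of growth. At the TGI there is no net growth.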
# What was measured:
# Test in all cases: DTP human tumour cell line panel, 48 h
# BT-549 breast = tested on: BT-549 breast
# SNB-75 CNS = tested on: SNB-75 CNS
# K-562 leukemia = tested on: K-562 leukemia
# M14 melanoma = tested on: M14 melanoma
# SK-MEL-28 melanoma = tested on: SK-MEL-28 melanoma
# SN12C renal = tested on: SN12C renal
# SF-295 CNS = tested on: SF-295 CNS
# HCC-2998 colon = tested on: HCC-2998 colon
# 786-0 renal = tested on: 786-0 renal
# HS 578T breast = tested on: HS 578T breast
# U251 CNS = tested on: U251 CNS
# PC-3 prostate = tested on: PC-3 prostate
# SK-OV-3 ovarian = tested on: SK-OV-3 ovarian
# UACC-62 melanoma = tested on: UACC-62 melanoma
# NCI/ADR-RES ovarian = tested on: NCI/ADR-RES ovarian
# LOX IMVI melanoma = tested on: LOX IMVI melanoma
# HCT-15 colon = tested on: HCT-15 colon
# HOP-62 NSCLC = tested on: HOP-62 NSCLC
# MDA-MB-231 breast = tested on: MDA-MB-231 breast
# DU-145 prostate = tested on: DU-145 prostate
# OVCAR-4 ovarian = tested on: OVCAR-4 ovarian
# RXF 393 renal = tested on: RXF 393 renal
# HT29 colon = tested on: HT29 colon
# OVCAR-8 ovarian = tested on: OVCAR-8 ovarian
# SF-539 CNS = tested on: SF-539 CNS
# NCI-H23 lung = tested on: NCI-H23 lung
# SK-MEL-2 melanoma = tested on: SK-MEL-2 melanoma
# A498 renal = tested on: A498 renal
# IGROV1 ovarian = tested on: IGROV1 ovarian
# UO-31 renal = tested on: UO-31 renal
# MOLT-4 leukemia = tested on: MOLT-4 leukemia
# KM12 colon = tested on: KM12 colon
# HCT-116 colon = tested on: HCT-116 colon
# TK-10 renal = tested on: TK-10 renal
# SW-620 colon = tested on: SW-620 colon
# SNB-19 CNS = tested on: SNB-19 CNS
# NCI-H226 lung = tested on: NCI-H226 lung
# NCI-H460 lung = tested on: NCI-H460 lung
# HOP-92 NSCLC = tested on: HOP-92 NSCLC
# MALME-3M melanoma = tested on: MALME-3M melanoma
# RPMI-8226 leukemia = tested on: RPMI-8226 leukemia
# OVCAR-5 ovarian = tested on: OVCAR-5 ovarian
# CAKI-1 renal = tested on: CAKI-1 renal
# SF-268 CNS = tested on: SF-268 CNS
# COLO 205 colon = tested on: COLO 205 colon
# MDA-MB-435 = tested on: MDA-MB-435
# SR leukemia = tested on: SR leukemia
# ACHN renal = tested on: ACHN renal
# HL-60(TB) leukemia = tested on: HL-60(TB) leukemia
# OVCAR-3 ovarian = tested on: OVCAR-3 ovarian
# SK-MEL-5 melanoma = tested on: SK-MEL-5 melanoma
# T-47D breast = tested on: T-47D breast
# MCF7 breast = tested on: MCF7 breast
compound,measurement,setting,value
C/C(=N\NC(=O)c1ccccc1N)c1ccccc1O,GI50,BT-549 breast,14.9 µM
same,TGI,BT-549 breast,> 100 µM
same,GI50,SNB-75 CNS,> 100 µM
same,TGI,SNB-75 CNS,> 100 µM
same,GI50,K-562 leukemia,3.72 µM
same,TGI,K-562 leukemia,> 100 µM
same,GI50,M14 melanoma,4.29 µM
same,TGI,M14 melanoma,57.5 µM
same,GI50,SK-MEL-28 melanoma,8.44 µM
same,TGI,SK-MEL-28 melanoma,> 100 µM
same,GI50,SN12C renal,5.25 µM
same,TGI,SN12C renal,> 100 µM
same,GI50,SF-295 CNS,3.23 µM
same,TGI,SF-295 CNS,> 100 µM
same,GI50,HCC-2998 colon,5.8 µM
same,TGI,HCC-2998 colon,> 100 µM
same,GI50,786-0 renal,5.37 µM
same,TGI,786-0 renal,80.4 µM
same,GI50,HS 578T breast,16.7 µM
same,TGI,HS 578T breast,> 100 µM
same,GI50,U251 CNS,2.21 µM
same,TGI,U251 CNS,> 100 µM
same,GI50,PC-3 prostate,6.95 µM
same,TGI,PC-3 prostate,> 100 µM
same,GI50,SK-OV-3 ovarian,13.4 µM
same,TGI,SK-OV-3 ovarian,> 100 µM
same,GI50,UACC-62 melanoma,3.39 µM
same,TGI,UACC-62 melanoma,47.5 µM
same,GI50,NCI/ADR-RES ovarian,4.52 µM
same,TGI,NCI/ADR-RES ovarian,> 100 µM
same,GI50,LOX IMVI melanoma,4.09 µM
same,TGI,LOX IMVI melanoma,> 100 µM
same,GI50,HCT-15 colon,1.44 µM
same,TGI,HCT-15 colon,> 100 µM
same,GI50,HOP-62 NSCLC,4.4 µM
same,TGI,HOP-62 NSCLC,> 100 µM
same,GI50,MDA-MB-231 breast,5.24 µM
same,TGI,MDA-MB-231 breast,> 100 µM
same,GI50,DU-145 prostate,4.67 µM
same,TGI,DU-145 prostate,> 100 µM
same,GI50,OVCAR-4 ovarian,2.14 µM
same,TGI,OVCAR-4 ovarian,> 100 µM
same,GI50,RXF 393 renal,11.2 µM
same,TGI,RXF 393 renal,> 100 µM
same,GI50,HT29 colon,8.58 µM
same,TGI,HT29 colon,> 100 µM
same,GI50,OVCAR-8 ovarian,3.16 µM
same,TGI,OVCAR-8 ovarian,> 100 µM
same,GI50,SF-539 CNS,3.26 µM
same,TGI,SF-539 CNS,> 100 µM
same,GI50,NCI-H23 lung,7.33 µM
same,TGI,NCI-H23 lung,> 100 µM
same,GI50,SK-MEL-2 melanoma,12.5 µM
same,TGI,SK-MEL-2 melanoma,> 100 µM
same,GI50,A498 renal,10.4 µM
same,TGI,A498 renal,> 100 µM
same,GI50,IGROV1 ovarian,3.56 µM
same,TGI,IGROV1 ovarian,> 100 µM
same,GI50,UO-31 renal,1.94 µM
same,TGI,UO-31 renal,> 100 µM
same,GI50,MOLT-4 leukemia,3.17 µM
same,TGI,MOLT-4 leukemia,> 100 µM
same,GI50,KM12 colon,3.92 µM
same,TGI,KM12 colon,> 100 µM
same,GI50,HCT-116 colon,2.4 µM
same,TGI,HCT-116 colon,> 100 µM
same,GI50,TK-10 renal,1.5 µM
same,TGI,TK-10 renal,> 100 µM
same,GI50,SW-620 colon,5.05 µM
same,TGI,SW-620 colon,> 100 µM
same,GI50,SNB-19 CNS,9.72 µM
same,TGI,SNB-19 CNS,> 100 µM
same,GI50,NCI-H226 lung,5.14 µM
same,TGI,NCI-H226 lung,> 100 µM
same,GI50,NCI-H460 lung,1.65 µM
same,TGI,NCI-H460 lung,> 100 µM
same,GI50,HOP-92 NSCLC,24.7 µM
same,TGI,HOP-92 NSCLC,> 100 µM
same,GI50,MALME-3M melanoma,19.4 µM
same,TGI,MALME-3M melanoma,> 100 µM
same,GI50,RPMI-8226 leukemia,9.51 µM
same,TGI,RPMI-8226 leukemia,> 100 µM
same,GI50,OVCAR-5 ovarian,4.45 µM
same,TGI,OVCAR-5 ovarian,> 100 µM
same,GI50,CAKI-1 renal,2.34 µM
same,TGI,CAKI-1 renal,> 100 µM
same,GI50,SF-268 CNS,3.05 µM
same,TGI,SF-268 CNS,> 100 µM
same,GI50,COLO 205 colon,3.23 µM
same,TGI,COLO 205 colon,> 100 µM
same,GI50,MDA-MB-435,8.53 µM
same,TGI,MDA-MB-435,> 100 µM
same,GI50,SR leukemia,2.83 µM
same,TGI,SR leukemia,66.6 µM
same,GI50,ACHN renal,2.63 µM
same,TGI,ACHN renal,> 100 µM
same,GI50,HL-60(TB) leukemia,3.01 µM
same,TGI,HL-60(TB) leukemia,> 100 µM
same,GI50,OVCAR-3 ovarian,2.79 µM
same,TGI,OVCAR-3 ovarian,> 100 µM
same,GI50,SK-MEL-5 melanoma,3.83 µM
same,TGI,SK-MEL-5 melanoma,57.7 µM
same,GI50,T-47D breast,2.6 µM
same,TGI,T-47D breast,> 100 µM
same,GI50,MCF7 breast,2.71 µM
same,TGI,MCF7 breast,> 100 µM
